Measurements as given in patent publication US20240310365A1, “DEVICE FOR EVALUATING INNER EAR DRUG DELIVERY” (North Carolina State University, priority 2023, published 2024).

Assays:
[1] = humans; after intratympanic DSP 0.4-1.8 ml of 4 mg/ml; cited from earlier work
porcine RWM = assay: Ex-vivo porcine RWM device permeability measurement; assay type: in vitro ADME; settings: Dex ~400 μg/ml

time for passage through the porcine RWM (porcine RWM): < 0.5 h
Compound: C[C@@H]1C[C@H]2[C@@H]3CCC4=CC(=O)C=C[C@]4(C)[C@@]3(F)[C@@H](O)C[C@]2(C)[C@@]1(O)C(=O)CO [Dex, dexamethasone]
dexamethasone concentration in perilymph [1]: about 1.4 μg/
